From patent US11834424B2, “Compounds useful as chaperone-mediated autophagy modulators” (ALBERT EINSTEIN COLLEGE OF MEDICINE, priority 2018, dated 2023)
Read-outs that look alike come from different tables or passages of the source.

Assay: Pharmacokinetics (plasma and brain levels) in ICR (CD-1) mice
Format: in vivo
Details: male, mouse; for AUC(0-inf): read-out: AUCINF_obs; for MRT inf: read-out: MRTINF_obs
Protocol: ICR (CD-1) male mice were fasted at least three horns and water was available ad libitum before the study. Animals were housed in a controlled environment, target conditions: temperature 18 to 29° C., relative humidity 30 to 70%. Temperature and relative humidity was monitored daily. An electronic time controlled lighting system was used to provide a 12 h light/12 h dark cycle. 3 mice for each indicated time point. ICR (CD-1) mice were administered CA77 at 1 mg/kg i.v. and 30 mg/kg p.o. or CA77.1 at 1 mg/kg i.v. (FIG. 2A) and 10 mg/kg p.o. (FIG. 2B). Three (3) mice were included in each dosage and time group. Mice were sacrificed and plasma and brains were obtained at 0.083, 0.25, 0.50, 1.0, 2.0, 4.0, 8.0, and 24.0 hours after administration and drug concentration determined using LC-MS/MS. Brains were removed, homogenized with a tissue homogenizer in cold 5% w/v BSA in phosphate buffer saline (PBS). A 100 microliter aliquots of brain samples were dispensed in to glass culture tubes and mixed with ethyl acetate (800 μl), vortexed, and centrifuged. The organic layer was transferred to a fresh culture tube, dried under nitrogen, and reconstituted in mobile phase for quantitation. Pharmacokinetic parameters were determined by standard methods using Phoenix WinNonlin 6.3 software.
Tables 3A and 3B provide the concentrations of CA77 in ICR (CD-1) mouse plasma (3A) and mouse brain (3B) following i.v. administration of 1 mg/kg CA77. Table 3C provides the brain/plasma ratio of CA77 following i.v. administration of 1 mg/kg CA77. Shaded cells indicate data not included in statistics due to aberrant value. BLQ=Below Limit of Quantitation.
Tables 5A and 5B provide the concentrations of CA77.1 in ICR (CD-1) mouse plasma (5A) and mouse brain (5B) following i.v. administration of 1 mg/kg CA77.1. Table 5C provides the brain/plasma ratio of CA77.1 following i.v. administration of 1 mg/kg CA77.1. The plasma and brain pharmacokinetic parameters for CA77.1 are provided in Table 6. *—cells contain data not present in the statistics.

[1] = ICR (CD-1), brain, iv, 1 mg/kg, i.v. 1 mg/kg, mouse brain, read-out: Conc. in brain, Mean
[2] = ICR (CD-1), brain, iv, 1 mg/kg, i.v. 1 mg/kg, mouse brain, read-out: Conc. in brain, individual animal
[3] = ICR (CD-1), brain/plasma, iv, 1 mg/kg, i.v. 1 mg/kg, read-out: Brain/Plasma ratio, Mean
[4] = ICR (CD-1), brain/plasma, iv, 1 mg/kg, i.v. 1 mg/kg, read-out: Brain/Plasma ratio, individual animal
[5] = ICR (CD-1), plasma, iv, 1 mg/kg, i.v. 1 mg/kg, mouse plasma, read-out: Conc. in plasma, Mean
[6] = ICR (CD-1), plasma, iv, 1 mg/kg, i.v. 1 mg/kg, mouse plasma, read-out: Conc. in plasma, individual animal
[7] = plasma, iv, i.v. 1 mg/kg, ICR (CD-1) mice
[8] = plasma, po, p.o. 10 mg/kg, ICR (CD-1) mice

## CC(=O)Nc1ccc(-c2cnc3cc(Cl)ccc3n2)cc1 [CA77.1, N-(4-(6-chloroquinoxalin-2-yl)phenyl)acetamide]
[1]
  concentration at 8 h: 4 ng/g
  concentration at 24 h: 0 ng/g
[2]
  concentration at 8 h: 4.92 ng/g
  concentration at 24 h: 0 ng/g
[3]
  Kp at 0.083 h: 5.64
  Kp at 0.25 h: 6.19
  Kp at 1 h: 7.52
  Kp at 8 h: 2.23
  Kp at 24 h: 0
[4]
  Kp at 0.083 h: 5.81
  Kp at 0.25 h: 6.54
  Kp at 1 h: 5.44
  Kp at 8 h: 1.79
  Kp at 24 h: 0
ICR (CD-1), brain/plasma, iv, 1 mg/kg, i.v. 1 mg/kg, 0.50 h, read-out: Brain/Plasma ratio, Mean
  Kp at 0.5 h: 3.92
ICR (CD-1), brain/plasma, iv, 1 mg/kg, i.v. 1 mg/kg, 2.00 h, read-out: Brain/Plasma ratio, Mean
  Kp at 2 h: 6.22
ICR (CD-1), brain/plasma, iv, 1 mg/kg, i.v. 1 mg/kg, 4.00 h, read-out: Brain/Plasma ratio, Mean
  Kp at 4 h: 4
[5]
  concentration at 0.083 h: 190 ng/mL
  concentration at 0.25 h: 129 ng/mL
  concentration at 1 h: 91 ng/mL
  concentration at 8 h: 2 ng/mL
  concentration at 24 h: 1 ng/mL
[6]
  concentration at 0.083 h: 177 ng/mL
  concentration at 0.25 h: 132 ng/mL
  concentration at 1 h: 110 ng/mL
  concentration at 8 h: 2.74 ng/mL
  concentration at 24 h: 0.556 ng/mL
ICR (CD-1), plasma, iv, 1 mg/kg, i.v. 1 mg/kg, mouse plasma, 0.50 h, read-out: Conc. in plasma, Mean
  concentration at 0.5 h: 276 ng/mL
ICR (CD-1), plasma, iv, 1 mg/kg, i.v. 1 mg/kg, mouse plasma, 2.00 h, read-out: Conc. in plasma, Mean
  concentration at 2 h: 46 ng/mL
ICR (CD-1), plasma, iv, 1 mg/kg, i.v. 1 mg/kg, mouse plasma, 4.00 h, read-out: Conc. in plasma, Mean
  concentration at 4 h: 6 ng/mL
[7]
  AUC(0-t): 314 ng·h/mL
  half-life: 1.39 h
  AUC(0-inf): 315 ng·h/mL
  MRT inf: 2 h
plasma, oral, p.o. 10 mg/kg vs i.v. 1 mg/kg, ICR (CD-1) mice
  bioavailability: 46.4%
[8]
  AUC(0-t): 1460 ng·h/mL
  half-life: 2.78 h
  AUC(0-inf): 1460 ng·h/mL
  MRT inf: 3 h
plasma, po, p.o. 10 mg/kg, ICR (CD-1) mice, read-out: Cmax
  Cmax: 464 ng/mL
plasma, po, p.o. 10 mg/kg, ICR (CD-1) mice, read-out: Tmax
  Tmax: 1 h
